Measured values taken from the NIST ThermoML archive (doi:10.1016/j.jct.2004.08.004).
Values joined by “and” are separate entries in the source; they are usually repeats but may differ in a detail not shown here. Identical values can stand only once.

Conditions: Liquid, Transpiration method

CCCCCCCCC#N [nonanenitrile]
Conditions | vapor or sublimation pressure
285.2 K | 0.0039 kPa
286.2 K | 0.00449 kPa
288.2 K | 0.00519 kPa
290.2 K | 0.0064 kPa
291.7 K | 0.00714 kPa
293.2 K | 0.00797 kPa
295.2 K | 0.00992 kPa
296.2 K | 0.01052 kPa
298.2 K | 0.0124 kPa
299.2 K | 0.0135 kPa
301.2 K | 0.01585 kPa
302.2 K | 0.01722 kPa
304.2 K | 0.0198 kPa
305.2 K | 0.02231 kPa
307.2 K | 0.02482 kPa
308.2 K | 0.02855 kPa
310.2 K | 0.03154 kPa
311.2 K | 0.03619 kPa
313.2 K | 0.04037 kPa
316.2 K | 0.05039 kPa and 0.05346 kPa
319.2 K | 0.06245 kPa
320.2 K | 0.06797 kPa
323.2 K | 0.08366 kPa

CCCCCCCCCCCCCCCC#N [hexadecanenitrile]
Conditions | vapor or sublimation pressure [kPa]
345.1 K | 0.00096
348.1 K | 0.00128
351.2 K | 0.00165
354.2 K | 0.00212
357.2 K | 0.00262
360.2 K | 0.00342
363.2 K | 0.00434
366.2 K | 0.00532
369.2 K | 0.00658
372.1 K | 0.00826
376.2 K | 0.0112
379.2 K | 0.0136
382.2 K | 0.01642

CCCCCCCCCCCCC#N [dodecanecarbonitrile]
Conditions | vapor or sublimation pressure [kPa]
301.2 K | 0.00024
313.3 K | 0.00075
318.1 K | 0.0012
324.1 K | 0.00205
327.2 K | 0.0028
330.2 K | 0.00364
333.1 K | 0.00466
336.2 K | 0.00594
339.2 K | 0.00754
342.1 K | 0.0095
345.2 K | 0.01168
348.2 K | 0.01466
351.2 K | 0.01796
354.2 K | 0.02244
357.2 K | 0.02764
360.2 K | 0.03471
363.2 K | 0.04232

CCCCCCCCCCCCCC#N [tetradecanenitrile]
Conditions | vapor or sublimation pressure [kPa]
327.2 K | 0.00109
330.2 K | 0.00139
333.2 K | 0.00183
336.2 K | 0.00236
339.2 K | 0.00306
342.1 K | 0.00383
345.2 K | 0.00491
348.1 K | 0.00628
351.2 K | 0.00777
354.2 K | 0.00982
357.2 K | 0.01221
360.2 K | 0.01474
363.2 K | 0.01847
366.2 K | 0.02305
369.2 K | 0.02799

CCCCCCCCCCCCCCCCC#N [heptadecanenitrile]
Conditions | vapor or sublimation pressure [kPa]
348.2 K | 0.00055
351.2 K | 0.00072
354.2 K | 0.00093
357.2 K | 0.00117
360.2 K | 0.00156
363.2 K | 0.00201
366.2 K | 0.00252
369.1 K | 0.00316
372.1 K | 0.00402
376.2 K | 0.00532
379.2 K | 0.00678
382.2 K | 0.00824
385.2 K | 0.01022

CCCCCCCCCC#N [1-decanenitrile]
Conditions | vapor or sublimation pressure [kPa]
295.2 K | 0.00359
298.3 K | 0.00484
302.2 K | 0.00692
305.6 K | 0.00928
308.7 K | 0.01188
311.7 K | 0.01511
313.1 K | 0.01667
315.2 K | 0.01966
316.2 K | 0.02172
319.2 K | 0.02728
322.2 K | 0.03317
326.3 K | 0.04574

CCCCCCCCCCC#N [1-decylcyanide]
Conditions | vapor or sublimation pressure [kPa]
290.3 K | 0.00062
298.2 K | 0.00131
305.2 K | 0.00255
307.2 K | 0.00308
309.2 K | 0.00374
310.2 K | 0.00402
313.2 K | 0.0051
314.2 K | 0.00577
319.1 K | 0.00834
319.2 K | 0.00877
322.1 K | 0.01069
322.2 K | 0.0113
325.2 K | 0.0144
325.3 K | 0.01379
327.2 K | 0.01646
328.2 K | 0.01792
331.3 K | 0.02254
332.2 K | 0.02447
334.2 K | 0.02763
337.2 K | 0.03454
337.3 K | 0.03505
340.3 K | 0.04264

CCCCCCC#N [heptanenitrile]
Conditions | vapor or sublimation pressure [kPa]
280.2 K | 0.02893
283.2 K | 0.03746
286.2 K | 0.04773
289.2 K | 0.05977
292.2 K | 0.07501
295.2 K | 0.09393
298.2 K | 0.1138
301.2 K | 0.1417
304.2 K | 0.1723
307.2 K | 0.2092

CCCCCCCC#N [octanenitrile]
Conditions | vapor or sublimation pressure
283.2 K | 0.01192 kPa
286.2 K | 0.0152 kPa
289.2 K | 0.01964 kPa
292.2 K | 0.02498 kPa
295.2 K | 0.03092 kPa
298.2 K | 0.03898 kPa
301.2 K | 0.04949 kPa and 0.04849 kPa
304.2 K | 0.06148 kPa
307.1 K | 0.07561 kPa
310.2 K | 0.09243 kPa and 0.09473 kPa

CCCCCCCCCCCCCCC#N [1-tetradecyl cyanide]
Conditions | vapor or sublimation pressure [kPa]
336.2 K | 0.00105
339.2 K | 0.00137
342.1 K | 0.00176
345.2 K | 0.00219
348.1 K | 0.00287
351.2 K | 0.00356
354.2 K | 0.00459
357.2 K | 0.00567
360.2 K | 0.00704
363.2 K | 0.00901
366.2 K | 0.01122
369.1 K | 0.0138
372.1 K | 0.017

CCCCCCCCCCCC#N [n-dodecanenitrile]
Conditions | vapor or sublimation pressure [kPa]
298.2 K | 0.00052
301.2 K | 0.00071
306.1 K | 0.00111
312.2 K | 0.00186
315.1 K | 0.00239
318.2 K | 0.00323
319.2 K | 0.0036
322.2 K | 0.00462
325.2 K | 0.0059
328.2 K | 0.00742
331.2 K | 0.00936
334.2 K | 0.0117
337.2 K | 0.01464
340.2 K | 0.01821
343.2 K | 0.02303
346.2 K | 0.02783
349.2 K | 0.03419
352.3 K | 0.04237
355.3 K | 0.05317
358.2 K | 0.06363
361.2 K | 0.07929
364.2 K | 0.09431
367.1 K | 0.1148
